Assay results published in patent US8975406B2, “Compound useful for the treatment of degenerative and inflammatory diseases” (Galapagos N.V., priority 2011, dated 2015).

Key:
[1] = target: T1, Recombinant human TYK2 catalytic domain (Homo sapiens, UniProt P29597); assay: TYK2 inhibition assay; format: biochemical; settings: polyGT substrate, 33P-gamma-ATP filter assay, 0.1 μM ATP
T1 construct: catalytic domain (amino acids 871-1187; catalog number 08-147); GST; purchased Carna Biosciences 08-147
T1 sequence (P29597 871-1187): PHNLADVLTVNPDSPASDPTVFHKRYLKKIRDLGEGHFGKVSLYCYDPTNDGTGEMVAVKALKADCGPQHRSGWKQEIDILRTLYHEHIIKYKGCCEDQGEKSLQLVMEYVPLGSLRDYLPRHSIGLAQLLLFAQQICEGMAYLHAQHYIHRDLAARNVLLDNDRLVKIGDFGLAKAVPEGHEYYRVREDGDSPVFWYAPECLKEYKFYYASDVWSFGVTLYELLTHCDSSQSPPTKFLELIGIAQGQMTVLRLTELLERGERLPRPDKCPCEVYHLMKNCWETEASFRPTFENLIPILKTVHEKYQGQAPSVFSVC
Experimental: Recombinant human TYK2 catalytic domain (amino acids 871-1187; catalog number 08-147) was purchased from Carna biosciences. 4 ng of TYK2 was incubated with 12.5 μg polyGT substrate (Sigma catalog number P0275) in kinase reaction buffer (25 mM Hepes pH 7.2, 50 mM NaCl, 0.5 mM EDTA, 1 mM DTT, 5 mM MnCl2, 10 mM MgCl2, 0.1% Brij-35, 0.1 μM non-radioactive ATP, 0.125 μCi ^33P-gamma-ATP (Perkin Elmer, catalog number NEG602K001MC) final concentrations) with or without 5 μL containing test compound or vehicle (DMSO, 1% final concentration), in a total volume of 25 μL, in a polypropylene 96-well plate (Greiner, V-bottom). After 90 min at 30° C., reactions were stopped by adding 25 μL/well of 150 mM phosphoric acid. All of the terminated kinase reaction was transferred to prewashed (75 mM phosphoric acid) 96 well filter plates (Perkin Elmer catalog number 6005177) using a cell harvester (Perkin Elmer). Plates were washed 6 times with 300 μL per well of a 75 mM phosphoric acid solution and the bottom of the plates was sealed. 40 μL/well of Microscint-20 was added, the top of the plates was sealed and readout was performed using the Topcount (Perkin Elmer). Kinase activity was calculated by subtracting counts per min (cpm) obtained in the presence of a positive control inhibitor (10 μM staurosporine) from cpm obtained in the presence of vehicle. The ability of a test compound to inhibit this activity was determined as: Percentage inhibition=((cpm determined for sample with test compound present−cpm determined for sample with positive control inhibitor)divided by(cpm determined in the presence of vehicle−cpm determined for sample with positive control inhibitor))*100.
Dose dilution series were prepared for the compounds enabling the testing of dose-response effects in the TYK2 assay and the calculation of the IC50 for each compound. Each compound was routinely tested at concentration of 20 μM followed by a ⅓ serial dilution, 8 points (20 μM-6.67 μM-2.22 μM-740 nM-247 nM-82 nM-27 nM-9 nM) in a final concentration of 1% DMSO. When potency of compound series increased, more dilutions were prepared and/or the top concentration was lowered (e.g. 5 μM, 1 μM).

[2] = test system: JAK-STAT signalling in HeLa cells; assay: JAK-STAT signalling assay (pSTAT1(2)-luciferase reporter, OSM-triggered HeLa cells); format: cell-based; settings: human OSM 33 ng/mL
Experimental: HeLa cells were maintained in Dulbecco's Modified Eagle's Medium (DMEM) containing 10% heat inactivated fetal calf serum, 100 U/mL penicillin and 100 μg/mL streptomycin. HeLa cells were used at 70% confluence for transfection. 20,000 cells in 87 μL cell culture medium were transiently transfected with 40 ng pSTAT1(2)-luciferase reporter (Panomics), 8 ng of LacZ reporter as internal control reporter and 52 ng of pBSK using 0.32 μL Jet-PEI (Polyplus) as transfection reagent per well in 96-well plate format. After overnight incubation at 37° C., 5% CO2, transfection medium was removed. 81 μL of DMEM+1.5% heat inactivated fetal calf serum was added. 9 μL compound at 10× concentration was added for 60 min and then 10 μL of human OSM (Peprotech) at 33 ng/mL final concentration.
All compounds were tested in duplicate starting from 20 μM followed by a ⅓ serial dilution, 8 doses in total (20 μM-6.6 μM-2.2 μM-740 nM-250 nM-82 nM-27 nM-9 nM) in a final concentration of 0.2% DMSO.
After overnight incubation at 37° C., 5% CO2 cells were lysed by adding 100 μL lysis buffer/well (PBS, 0.9 mM CaCl2, 0.5 mM MgCl2, 10% Trehalose, 0.05% Tergitol NP9, 0.3% BSA).
40 μL of cell lysate was used to read β-galactosidase activity by adding 180 μL β-Gal solution (30 μl ONPG 4 mg/mL+150 μL β-Galactosidase buffer (0.06 M Na2HPO4, 0.04 M NaH2PO4, 1 mM MgCl2)) for 20 min. The reaction was stopped by addition of 50 μL Na2CO3 1 M. Absorbance was read at 405 nm.
Luciferase activity was measured using 40 μL cell lysate plus 40 μL of Steadylite® as described by the manufacturer (Perkin Elmer), on the Envision (Perkin Elmer).
Omitting OSM was used as a positive control (100% inhibition). As negative control 0.5% DMSO (0% inhibition) was used. The positive and negative controls were used to calculate z′ and ‘percent inhibition’ (PIN) values. Percentage inhibition=((fluorescence determined in the presence of vehicle−fluorescence determined for sample with test compound present)divided by(fluorescence determined in the presence of vehicle−fluorescence determined for sample without trigger))*100.
PIN values were plotted for compounds tested in dose-response and EC50 values were derived.

IC50 [1] | IC50 [2] | SMILES
0.01 to 100 nM | 101 to 500 nM | O=C(Nc1cc2c(-c3ccc(CN4CCS(=O)(=O)CC4)cc3)cccn2n1)C1CC1 [Compound 10, Cyclopropanecarboxylic acid {4-[4-(1,1-dioxo-thiomorpholin-4-ylmethyl)-phenyl]-pyrazolo[1,5-a]pyridin-2-yl}-amide]
0.01 to 100 nM | > 1000 nM | O=C(Nc1cc2c(-c3ccc4[nH]ccc4c3)cccn2n1)C1CC1 [Compound 4, N-(4-(1H-indol-5-yl)pyrazolo[1,5-a]pyridin-2-yl)cyclopropanecarboxamide]
101 to 500 nM | 101 to 500 nM | O=C(NCCOc1ccccc1)c1ccc(-c2cccn3nc(NC(=O)C4CC4)cc23)cc1 [Compound 6, 4-(2-(cyclopropanecarboxamido)pyrazolo[1,5-a]pyridin-4-yl)-N-(2-phenoxyethyl)benzamide]
101 to 500 nM | > 1000 nM | O=C(Nc1cc2c(-c3ccc4c(ccn4Cc4ccccc4)c3)cccn2n1)C1CC1 [Compound 3, N-(4-(1-benzyl-1H-indol-5-yl)pyrazolo[1,5-a]pyridin-2-yl)cyclopropanecarboxamide]
0.01 to 100 nM | 101 to 500 nM | N#Cc1ccc(COc2ccc(-c3cccn4nc(NC(=O)C5CC5)cc34)cc2)cn1 [Compound 9, N-(4-(4-((6-cyanopyridin-3-yl)methoxy)phenyl)pyrazolo[1,5-a]pyridin-2-yl)cyclopropanecarboxamide]
0.01 to 100 nM | 101 to 500 nM | O=C(NCCc1ccccc1)c1ccc(-c2cccn3nc(NC(=O)C4CC4)cc23)cc1 [Compound 5, 4-(2-(cyclopropanecarboxamido)pyrazolo[1,5-a]pyridin-4-yl)-N-phenethylbenzamide]

Second part, the compound before the results:

SMILES | IC50 [1] | IC50 [2]
CS(=O)(=O)N1CC[C@@H](Oc2ccc(-c3cccn4nc(NC(=O)C5CC5)cc34)cc2)C1 [Compound 49, (R)-N-(4-(4-(1-(methylsulfonyl)pyrrolidin-3-yloxy)phenyl)pyrazolo[1,5-a]pyridin-2-yl)cyclopropanecarboxamide] | 0.01 to 100 nM | 101 to 500 nM
CC(=O)Nc1cc2c(-c3ccc(CN4CCN(S(C)(=O)=O)CC4)c(F)c3)cccn2n1 [Compound 21] | 101 to 500 nM | 501 to 1000 nM
O=C(Nc1nn2cccc(-c3ccc(CN4CCS(=O)(=O)CC4)cc3)c2c1Br)C1CC1 [Compound 12, Cyclopropanecarboxylic acid {4-[4-(1,1-dioxo-thiomorpholin-4-ylmethyl)-phenyl]-3-bromo-pyrazolo[1,5-a]pyridin-2-yl}-amide] | 0.01 to 100 nM | > 1000 nM
O=C(Nc1nn2cccc(-c3ccc(CN4CCS(=O)(=O)CC4)cc3)c2c1F)C1CC1 [Compound 11, Cyclopropanecarboxylic acid {4-[4-(1,1-dioxo-thiomorpholin-4-ylmethyl)-phenyl]-3-fluoro-pyrazolo[1,5-a]pyridin-2-yl}-amide] | 0.01 to 100 nM | 501 to 1000 nM
C[C@H](c1ccc(-c2cccn3nc(NC(=O)C4CC4)cc23)cc1)N1CCN(S(C)(=O)=O)CC1 [Compound 46, (R)-N-(4-(4-(1-(4-(methylsulfonyl)piperazin-1-yl)ethyl)phenyl)pyrazolo[1,5-a]pyridin-2-yl)cyclopropanecarboxamide] | 0.01 to 100 nM | 101 to 500 nM
O=C(Nc1cc2c(-c3ccc(C(=O)N4CCCCC4)cc3)cccn2n1)C1CC1 [Compound 14, Cyclopropanecarboxylic acid {4-[4-(piperidine-1-carbonyl)-phenyl]-pyrazolo[1,5-a]pyridin-2-yl}-amide] | 0.01 to 100 nM | 101 to 500 nM
CC(=O)Nc1cc2c(-c3ccc(CN4CCN(S(C)(=O)=O)C[C@H]4C)cc3)cccn2n1 [Compound 24, (R)-N-(4-(4-((2-methyl-4-(methylsulfonyl)piperazin-1-yl)methyl)phenyl)pyrazolo[1,5-a]pyridin-2-yl)acetamide] | 501 to 1000 nM | > 1000 nM
C[C@@H]1CN(S(C)(=O)=O)CCN1Cc1ccc(-c2cccn3nc(NC(=O)C4CC4)cc23)cc1 [Compound 44, (R)-N-(4-(4-((2-methyl-4-(methylsulfonyl)piperazin-1-yl)methyl)phenyl)pyrazolo[1,5-a]pyridin-2-yl)cyclopropanecarboxamide] | 0.01 to 100 nM | 101 to 500 nM
CC(=O)Nc1cc2c(-c3ccc(CC(=O)N4CC(F)(F)C4)cc3)cccn2n1 [Compound 34, N-(4-(4-(2-(3,3-difluoroazetidin-1-yl)-2-oxoethyl)phenyl)pyrazolo[1,5-a]pyridin-2-yl)acetamide] | 0.01 to 100 nM | 501 to 1000 nM
CS(=O)(=O)C1CCN(Cc2ccc(-c3cccn4nc(NC(=O)C5CC5)c(Cl)c34)cc2F)CC1 [Compound 20, N-(3-chloro-4-(3-fluoro-4-((4-(methylsulfonyl)piperidin-1-yl)methyl)phenyl)pyrazolo[1,5-a]pyridin-2-yl)cyclopropanecarboxamide] | 0.01 to 100 nM | > 1000 nM
CC(=O)Nc1cc2c(-c3ccc(CN4CCC(S(C)(=O)=O)CC4)c(F)c3)cccn2n1 [Compound 29, N-(4-(3-fluoro-4((4-(methylsulfonyl)piperidin-1-yl)methyl)phenyl)pyrazolo[1,5-a]pyridin-2-yl)acetamide] | 0.01 to 100 nM | > 1000 nM
